In article PMC4950319, “Kinetic and structural characterization of amyloid‐β peptide hydrolysis by human angiotensin‐1‐converting enzyme” (The Febs Journal, 2016):
Several values for one entry are separate records, joined by “and”; a condition that tells them apart may be missing. Identical values can stand only once. Where no end group is shown, it is not given here. The star is where a group is joined. Cbz = O=C(OCc1ccccc1)*

Tests used:
[1] = test system: sACE (human ACE); conditions: cited from earlier work
Source text: Due to the C‐domain's poorer hydrolysis of Aβ we can infer that the C‐domain appears ...

[2] = target: soluble form of the N-domain of human sACE (Ndom) (human) (UniProt P12821)
[3] = target: full-length domain knockout variant of human sACE with only the C-domain active (C-sACE) (human) (UniProt P12821)
[4] = target: full-length domain knockout variant of human sACE with only the N-domain active (N-sACE) (human) (UniProt P12821)
[5] = target: human wild-type somatic ACE (sACE) (human) (UniProt P12821)
[6] = target: T1, Ndom (soluble form of the N‐domain of sACE) (Homo sapiens, UniProt P12821); assay: Aβ(4–10)Q hydrolysis by Ndom, fluorogenic assay; type: biochemical; conditions: fluorescence λex 320 nm, λem 420 nm, 50 mM Hepes pH 7.5, 100 mM NaCl, 10 μM ZnSO4, substrate 0 to 30 μM, 45 min, 37 °C, enzyme 0.60 pmol, n = 3
T1 construct: made in house; host or cells: CHO cells
Source text: (§1) Fluorogenic substrates designed around the established N‐terminal Asp7‐Ser8 cleavage site of the full‐length Aβ(1–42) were used to develop a higher throughput assay. There are two variations of the short fluorogenic peptides: Aβ(4–10)Q (Abz‐FRHDSG(Q)‐EDDnp) which has an N‐terminal Abz donor and a C‐terminal EDDnp quencher group attached to an additional Gln residue. The second peptide, Aβ(4–10)Y (Abz‐FRHDSG‐(NT)) has a different quencher molecule, NT, which substitutes for the naturally occurring Tyr residue.
(§2) Hydrolysis of the fluorogenic peptide Abz‐FRHDSG(Q)‐EDDnp (Aβ(4–10)Q, obtained from A. Carmona, Universidade Federal de São Paulo, Brazil) was performed in Hepes buffer (50 mM Hepes pH 7.5, 100 mM NaCl, 10 μM ZnSO4 buffer) with 150 μL enzyme (at final concentrations within 10% hydrolysis of total substrate; see Table 2) and equal volume of substrate ranging from 0 to 30 μM. The assay is a modified form of the continuous assay 7 where the assay is set up on ice in triplicate in a 96‐well plate. The baseline fluorescence was at time zero and then the substrate was incubated at 37 °C and fluorescence read at the 45 min time point on a Cary Eclipse spectrofluorimeter (Varian Inc.) at λex = 320 nm and λem = 420 nm. Again, kinetic constants were calculated using the Michaelis–Menten method with […] PRISM software (v4.01, GraphPad Prism®). The detected fluorescence was converted to picamoles product formed through the slope of a calibration curve of Abz‐Gly. A correction curve was also applied to correct the data for the inner filter effect 70.
(§3) Statistical analysis of the data was determined by Student's t test. Differences with P < 0.05 were considered statistically significant. Fractional error was calculated for the k cat/K m ratio with the following equation: ΔZ=ZΔa/a^2+Δb/b^2 where Z represents the mean k cat/K m and ΔZ represents the fractional error. The Δa represents the SEM of the mean k cat (a). Similarly, Δb represents the SEM of the mean K m (b).

[7] = target: T2, C‐sACE (Homo sapiens, UniProt P12821, H390K/H394K); assay: Aβ(4–10)Q hydrolysis by C‐sACE, fluorogenic assay; type: biochemical; conditions: fluorescence λex 320 nm, λem 420 nm, 50 mM Hepes pH 7.5, 100 mM NaCl, 10 μM ZnSO4, substrate 0 to 30 μM, 45 min, 37 °C, enzyme 1.50 pmol, n = 3
T2 construct: Both constructs have the complete signal, transmembrane and stalk region corresponding to full‐length sACE; made in house; host or cells: CHO cells; purified from cell lysate
Source text: as §1, §2, §3

[8] = target: T3, N‐sACE (Homo sapiens, UniProt P12821, H988K/H992K); assay: Aβ(4–10)Q hydrolysis by N‐sACE, fluorogenic assay; type: biochemical; conditions: fluorescence λex 320 nm, λem 420 nm, 50 mM Hepes pH 7.5, 100 mM NaCl, 10 μM ZnSO4, substrate 0 to 30 μM, 45 min, 37 °C, enzyme 9.00 pmol, n = 3
T3 construct: Both constructs have the complete signal, transmembrane and stalk region corresponding to full‐length sACE; made in house; host or cells: CHO cells; purified from cell lysate
Source text: as §1, §2, §3

[9] = target: T4, sACE (Homo sapiens, UniProt P12821); assay: Aβ(4–10)Q hydrolysis by sACE, fluorogenic assay; type: biochemical; conditions: fluorescence λex 320 nm, λem 420 nm, 50 mM Hepes pH 7.5, 100 mM NaCl, 10 μM ZnSO4, substrate 0 to 30 μM, 45 min, 37 °C, enzyme 1.50 pmol, n = 3
T4 construct: made in house; host or cells: CHO cells; purified from cell lysate
Source text: as §1, §2, §3

[10] = target: T4, sACE; assay: Interdomain cooperativity in hydrolysis of Aβ substrates; type: biochemical; conditions: two domains of sACE, truncated and full‐length constructs compared
Method: Mixtures were separated on a Poroshell 120 EC‐18 column with a 2.7 μm pore size. The reaction consists of 25 μL substrate incubated with 25 μL enzyme for 15 min at 37 °C and was stopped with the addition of 10 μL of 0.25% trifluoroacetic acid (TFA). The total reaction (60 μL) was cleared of contaminants on a spin column (GHP Nanosep® MF Centrifugal Device 0.45 μm pore size) and run on the HPLC. Kinetic parameters were determined through the fitting of initial rates to the Michaelis–Menten equation with […] PRISM software (v 4.01, GraphPad Prism®).
The reaction was incubated for 15 min at 37 °C and stopped with the addition of 10 μL 0.25% TFA to make up a total volume of 60 μL. The reactions were performed in triplicate and 50 μL injections were analysed via HPLC (Agilent Technologies) across a gradient of 0.1% TFA and 2% ACN in water to 0.1% TFA, 95% ACN. A calibration curve was set up to convert the product peak area to picomoles product formed, through the complete hydrolysis of the substrate with the N‐domain. […] Kinetic constants were calculated using the Michaelis–Menten method using […] […]
The assay is a modified form of the continuous assay 7 where the assay is set up on ice in triplicate in a 96‐well plate. The baseline fluorescence was at time zero and then the substrate was incubated at 37 °C and fluorescence read at the 45 min time point on a Cary Eclipse spectrofluorimeter (Varian Inc.) at λex = 320 nm and λem = 420 nm. Again, kinetic constants were calculated using the Michaelis–Menten method with […] […] The detected fluorescence was converted to picamoles product formed through the slope of a calibration curve of Abz‐Gly. […]
An alternative fluorogenic peptide, Abz‐FRHDSG‐(NT) (BIOPEP™ South Africa) was assayed, with 100 μL enzyme and 100 μL substrate (at a final enzyme concentration within 10% hydrolysis of total substrate; see Table 3) as above, in 96‐well plates. The samples were read at the 5 min time point on a Cary Eclipse spectrofluorimeter (Varian Inc.) at λex = 320 nm and λem = 420 nm. Kinetic constants, inner filter effect and standard curves were calculated as above.

[11] = test system: ACE variants; assay: Cleavage‐site analysis by MALDI‐TOF MS, kinetic assay conditions; type: biochemical, human; conditions: MALDI‐TOF MS of products within kinetic assay conditions; Aβ(1–16): all ACE variants except Cdom; Aβ(4–10) peptides: Cdom and CC‐sACE not analysed
Method: The mass spectrometry was analysed at the Centre for Proteomic and Genomic Research (Cape Town, South Africa). Briefly, the collected peptides were spotted onto a 10 mg·mL^−1 α‐cyano‐4‐hydroxycinnamic acid matrix (Fluka, USA) in 80% ACN, 0.2% TFA for a final concentration of 5 mg·mL^−1 matrix in 40% ACN, 0.1% TFA, 10 mM NH4H2PO4. Mass spectrometry was performed with a 4800 MALDI‐TOF/TOF (Applied Biosytems) with all spectra recorded in positive reflector mode. Spectra were generated with 400 laser shots/spectrum at a laser intensity of 3800 (arbitrary units) with a grid voltage of 16 kV.

[12] = test system: CC‐sACE; assay: Aβ(4–10)Q hydrolysis by CC‐sACE, fluorogenic assay; type: biochemical, human; conditions: Hepes pH 7.5, 37 °C, 45 min, fluorescence
Source text: as §1
as §2, with “The assay is a modified form of the continuous assay 7 where the assay is set up on ice in triplicate in a 96‐well plate.” left out, “PRISM software (v4.01, GraphPad Prism®).” left out, “A correction curve was also applied to correct the data for the inner filter effect 70.” left out
Statistical analysis of the data was determined by Student's t test. […]

[13] = test system: ACE; conditions: full‐length Aβ(1–42); cited from earlier work
Source text: This type of cleavage has been observed in previous studies with other amyloid peptides 23, 24 and was also observed in the crystal structures of the N‐domain in complex with all the Aβ fragments tested. Based on the MS analysis of th ...

[14] = mean ± fractional error of the ratio

T1 sequence (P12821 30-658): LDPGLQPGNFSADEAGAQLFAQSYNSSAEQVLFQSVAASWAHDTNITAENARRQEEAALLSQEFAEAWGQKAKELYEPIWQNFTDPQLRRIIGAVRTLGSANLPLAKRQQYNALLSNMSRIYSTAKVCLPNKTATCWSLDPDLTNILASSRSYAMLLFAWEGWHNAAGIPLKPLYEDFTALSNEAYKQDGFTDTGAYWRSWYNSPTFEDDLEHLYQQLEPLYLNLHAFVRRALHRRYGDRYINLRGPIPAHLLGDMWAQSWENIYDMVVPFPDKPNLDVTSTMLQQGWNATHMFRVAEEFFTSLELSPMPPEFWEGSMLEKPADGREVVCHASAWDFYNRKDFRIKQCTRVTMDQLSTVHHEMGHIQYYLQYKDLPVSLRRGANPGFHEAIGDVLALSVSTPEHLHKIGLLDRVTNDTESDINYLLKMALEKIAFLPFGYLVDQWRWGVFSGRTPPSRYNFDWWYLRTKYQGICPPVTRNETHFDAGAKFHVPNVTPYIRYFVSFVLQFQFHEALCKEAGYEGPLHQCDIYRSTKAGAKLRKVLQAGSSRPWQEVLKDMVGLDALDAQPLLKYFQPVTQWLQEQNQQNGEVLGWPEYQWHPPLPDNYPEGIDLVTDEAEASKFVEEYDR
T2 sequence (P12821 30-1306 H390K/H394K): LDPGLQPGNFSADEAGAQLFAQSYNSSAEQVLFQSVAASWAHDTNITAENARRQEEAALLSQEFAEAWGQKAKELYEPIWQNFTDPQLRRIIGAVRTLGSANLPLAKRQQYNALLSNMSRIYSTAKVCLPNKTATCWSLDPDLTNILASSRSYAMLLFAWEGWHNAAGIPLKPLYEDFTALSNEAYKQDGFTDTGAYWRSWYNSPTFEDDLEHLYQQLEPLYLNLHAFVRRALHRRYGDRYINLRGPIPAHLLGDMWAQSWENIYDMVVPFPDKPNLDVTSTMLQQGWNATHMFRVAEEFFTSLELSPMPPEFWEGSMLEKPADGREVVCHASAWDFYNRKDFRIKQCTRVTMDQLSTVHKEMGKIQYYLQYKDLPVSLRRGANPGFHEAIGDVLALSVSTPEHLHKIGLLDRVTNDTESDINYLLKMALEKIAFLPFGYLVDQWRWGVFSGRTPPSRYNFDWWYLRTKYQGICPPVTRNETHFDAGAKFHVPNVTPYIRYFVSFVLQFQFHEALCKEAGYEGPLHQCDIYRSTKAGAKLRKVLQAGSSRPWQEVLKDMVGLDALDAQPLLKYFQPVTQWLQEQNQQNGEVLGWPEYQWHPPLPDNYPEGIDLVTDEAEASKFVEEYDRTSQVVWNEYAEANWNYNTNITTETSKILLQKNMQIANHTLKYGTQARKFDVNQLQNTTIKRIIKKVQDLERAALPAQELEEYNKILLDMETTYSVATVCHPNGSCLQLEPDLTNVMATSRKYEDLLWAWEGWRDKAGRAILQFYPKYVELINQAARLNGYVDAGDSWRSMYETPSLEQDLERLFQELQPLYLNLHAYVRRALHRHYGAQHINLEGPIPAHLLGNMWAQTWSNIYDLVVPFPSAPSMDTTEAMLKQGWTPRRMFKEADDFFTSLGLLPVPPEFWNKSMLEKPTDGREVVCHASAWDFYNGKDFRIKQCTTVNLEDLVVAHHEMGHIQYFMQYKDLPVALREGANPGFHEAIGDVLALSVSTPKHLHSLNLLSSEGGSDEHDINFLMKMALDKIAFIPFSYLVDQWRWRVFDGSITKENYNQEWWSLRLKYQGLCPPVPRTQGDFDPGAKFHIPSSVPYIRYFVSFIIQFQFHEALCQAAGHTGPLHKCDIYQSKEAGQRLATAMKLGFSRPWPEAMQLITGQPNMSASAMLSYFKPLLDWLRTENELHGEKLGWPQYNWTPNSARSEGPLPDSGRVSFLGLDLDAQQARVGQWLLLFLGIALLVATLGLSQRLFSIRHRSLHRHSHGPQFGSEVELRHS
T3 sequence (P12821 30-1306 H988K/H992K): as the sequence (P12821 30-1306 H390K/H394K) above, with K361H, K365H, H959K, H963K counted along it
T4 sequence (P12821 30-1306): as the sequence (P12821 30-1306 H390K/H394K) above, with K361H, K365H counted along it
Chain of CC‐sACE (P12821 643-1222 limits assumed): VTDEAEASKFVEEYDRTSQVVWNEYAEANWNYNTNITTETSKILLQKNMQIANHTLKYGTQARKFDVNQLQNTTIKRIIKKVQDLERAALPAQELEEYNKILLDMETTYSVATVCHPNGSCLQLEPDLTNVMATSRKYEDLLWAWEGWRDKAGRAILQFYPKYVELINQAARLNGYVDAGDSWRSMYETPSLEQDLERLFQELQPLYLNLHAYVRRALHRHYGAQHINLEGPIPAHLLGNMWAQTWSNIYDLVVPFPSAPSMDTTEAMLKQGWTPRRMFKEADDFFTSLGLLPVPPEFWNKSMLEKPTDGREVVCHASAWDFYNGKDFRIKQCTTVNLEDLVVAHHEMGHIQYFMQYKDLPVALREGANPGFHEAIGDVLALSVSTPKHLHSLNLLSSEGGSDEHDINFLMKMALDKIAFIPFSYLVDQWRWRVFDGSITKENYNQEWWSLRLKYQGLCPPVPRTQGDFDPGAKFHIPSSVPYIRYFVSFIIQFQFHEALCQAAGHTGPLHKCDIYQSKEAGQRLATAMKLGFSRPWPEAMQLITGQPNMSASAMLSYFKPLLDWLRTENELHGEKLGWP
Chain of soluble form of the N-domain of human sACE (Ndom) (human) (P12821 30-658): as the sequence (P12821 30-658) above
Chain of full-length domain knockout variant of human sACE with only the C-domain active (C-sACE) (human) (P12821 other isoform, or with tags, fused parts or gaps, change not shown): as the sequence (P12821 30-1306 H390K/H394K) above
Chain of full-length domain knockout variant of human sACE with only the N-domain active (N-sACE) (human) (P12821 other isoform, or with tags, fused parts or gaps, change not shown): as the sequence (P12821 30-1306 H390K/H394K) above, with K361H, K365H, H959K, H963K counted along it
Chain of human wild-type somatic ACE (sACE) (human) (P12821 30-1306): as the sequence (P12821 30-1306 H390K/H394K) above, with K361H, K365H counted along it

**Q.** With “angiotensin I (DRVYIHPFHL; Angiotensin-1; UniProt P01019 25-34, looked up) [physiological ACE substrate]” as the substance, how does the interdomain cooperativity ([1]; human ACE enzymes) read?
**A.** showed a similar result for angiotensin I and angiotensin‐(1‐7) but not angiotensin‐(1‐9)

**Q.** Which “degree of cooperativity between domains” value ([1]; compared with many synthetic peptides) does the source give for “bradykinin (RPPGFSPFR; Bradykinin; UniProt P01042 381-389, looked up) [vasodilatory peptide, physiological substrate]” here?
**A.** considerably less than many synthetic peptides

**Q.** Which results are given for Aβ(1–16) (H-…-OH) (peptide)?
**A.** Km of hydrolysis of Aβ(1–16) (HPLC assay, 15 min, 37 °C, 50 mM Hepes pH 7.5, 100 mM NaCl, 10 μM ZnSO4) [2]: 21.4 μM; Km of hydrolysis of Aβ(1–16) (HPLC assay, 15 min, 37 °C, 50 mM Hepes pH 7.5, 100 mM NaCl, 10 μM ZnSO4) [3]: 42.4 μM; Km of hydrolysis of Aβ(1–16) (HPLC assay, 15 min, 37 °C, 50 mM Hepes pH 7.5, 100 mM NaCl, 10 μM ZnSO4) [4]: 34.2 μM; Km of hydrolysis of Aβ(1–16) (HPLC assay, 15 min, 37 °C, 50 mM Hepes pH 7.5, 100 mM NaCl, 10 μM ZnSO4) [5]: 35.2 μM

**Q.** What does the source list for “Abz‐FRHDSG(Q)‐EDDnp [Aβ(4–10)Q, fluorogenic Aβ(4–10) peptide, Abz donor, EDDnp quencher attached to additional Gln]”?
**A.** K m ([6]; mean ± SEM): 22.20 ± 3.23 µM; V max ([6]; mean ± SEM): 0.29 ± 0.02; k cat ([6]; mean ± SEM): 0.48 ± 0.04 s⁻¹; k cat/K m [6, 14]: 0.22 M^−1·s^−1 × 10^5 and 0.22 ± 0.04 M^−1·s^−1 × 10^5; K m ([7]; mean ± SEM): 11.50 ± 3.03 µM; V max ([7]; mean ± SEM): 0.12 ± 0.01; k cat ([7]; mean ± SEM): 0.08 ± 0.01 s⁻¹; k cat/K m [7, 14]: 0.08 ± 0.02 M^−1·s^−1 × 10^5; K m ([8]; mean ± SEM): 42.43 ± 3.92 µM; V max ([8]; mean ± SEM): 3.23 ± 0.20; k cat ([8]; mean ± SEM): 0.36 ± 0.02 s⁻¹; k cat/K m [8, 14]: 0.09 M^−1·s^−1 × 10^5 and 0.09 ± 0.01 M^−1·s^−1 × 10^5; K m ([9]; mean ± SEM): 22.90 ± 3.45 µM; V max ([9]; mean ± SEM): 0.09 ± 0.01; k cat ([9]; mean ± SEM): 0.06 ± 0.01 s⁻¹; k cat/K m [9, 14]: 0.03 ± 0.01 M^−1·s^−1 × 10^5; interdomain cooperativity [10]: This is also true for the Aβ(4–10)Q substrate, although to a much lesser extent; cleavage site (bond) [11]: Asp7‐Ser8; hydrolysis by CC‐sACE [12]: almost no hydrolysis

**Q.** Which “effect of the presence of the N‐domain on hydrolysis” value [1] does the source give for Cbz-Phe-His-Leu [ACE substrate] here?
**A.** regulatory effects

**Q.** Which cleavage sites [13] does the source give for Aβ(1–42): full‐length Aβ(1–42) here?
**A.** multiple cleavage sites
